Measured values from the kinase profiling compilation of Christmann-Franck et al. (2016).

Key:
Assay in all cases: radiometric filter-binding kinase assay, Kinase HotSpot
Conditions in all cases: compound 0.5 µM; ATP 10 µM
[1] = system: MAP2K6 (human), P52564 [S207E/T211E]
[2] = system: MKNK1 (human), Q9BUB5 [T385D; 165-205 del]
[3] = system: PRKCQ (human), Q04759 [P330L]
[4] = system: FLT4 (human), P35916 [Q890H]
FLT4 (human), P35916 [Q890H], sequence (P35916 whole entry, looked up, stated change not applied): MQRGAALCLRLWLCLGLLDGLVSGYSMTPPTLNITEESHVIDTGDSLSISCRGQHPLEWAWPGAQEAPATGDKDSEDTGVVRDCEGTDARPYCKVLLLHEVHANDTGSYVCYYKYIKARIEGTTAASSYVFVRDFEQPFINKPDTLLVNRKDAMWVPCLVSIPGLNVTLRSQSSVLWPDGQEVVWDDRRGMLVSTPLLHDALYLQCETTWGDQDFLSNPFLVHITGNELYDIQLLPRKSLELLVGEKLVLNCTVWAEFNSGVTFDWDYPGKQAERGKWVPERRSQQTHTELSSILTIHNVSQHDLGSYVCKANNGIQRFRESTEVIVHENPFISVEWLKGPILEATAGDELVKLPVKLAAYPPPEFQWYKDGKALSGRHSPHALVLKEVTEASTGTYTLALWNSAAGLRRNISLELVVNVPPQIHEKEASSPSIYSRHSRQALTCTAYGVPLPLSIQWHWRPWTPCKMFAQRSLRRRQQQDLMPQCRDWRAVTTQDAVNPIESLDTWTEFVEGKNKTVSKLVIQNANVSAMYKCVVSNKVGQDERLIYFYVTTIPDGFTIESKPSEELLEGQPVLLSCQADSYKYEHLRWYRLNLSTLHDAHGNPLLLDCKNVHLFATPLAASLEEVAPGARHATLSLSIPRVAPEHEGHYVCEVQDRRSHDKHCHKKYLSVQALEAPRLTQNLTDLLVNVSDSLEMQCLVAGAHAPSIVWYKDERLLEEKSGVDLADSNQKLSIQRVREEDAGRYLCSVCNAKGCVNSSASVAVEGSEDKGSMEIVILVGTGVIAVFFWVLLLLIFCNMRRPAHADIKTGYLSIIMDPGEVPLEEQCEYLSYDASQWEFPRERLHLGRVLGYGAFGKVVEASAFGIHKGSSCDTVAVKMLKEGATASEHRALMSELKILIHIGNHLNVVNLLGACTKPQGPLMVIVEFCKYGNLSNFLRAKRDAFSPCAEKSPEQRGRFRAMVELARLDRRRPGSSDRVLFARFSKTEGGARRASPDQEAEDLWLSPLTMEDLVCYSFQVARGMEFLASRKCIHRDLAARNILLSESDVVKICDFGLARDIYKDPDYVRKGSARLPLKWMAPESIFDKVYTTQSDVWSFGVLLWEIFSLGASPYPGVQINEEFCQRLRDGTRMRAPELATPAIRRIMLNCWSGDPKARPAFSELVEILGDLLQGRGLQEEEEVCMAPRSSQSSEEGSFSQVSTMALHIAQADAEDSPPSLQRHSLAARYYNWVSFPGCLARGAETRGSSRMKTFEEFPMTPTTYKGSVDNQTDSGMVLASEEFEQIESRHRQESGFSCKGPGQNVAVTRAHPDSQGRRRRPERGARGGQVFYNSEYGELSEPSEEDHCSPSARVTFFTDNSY

PRKCQ (human), Q04759 [P330L], sequence (Q04759 whole entry P330L, looked up): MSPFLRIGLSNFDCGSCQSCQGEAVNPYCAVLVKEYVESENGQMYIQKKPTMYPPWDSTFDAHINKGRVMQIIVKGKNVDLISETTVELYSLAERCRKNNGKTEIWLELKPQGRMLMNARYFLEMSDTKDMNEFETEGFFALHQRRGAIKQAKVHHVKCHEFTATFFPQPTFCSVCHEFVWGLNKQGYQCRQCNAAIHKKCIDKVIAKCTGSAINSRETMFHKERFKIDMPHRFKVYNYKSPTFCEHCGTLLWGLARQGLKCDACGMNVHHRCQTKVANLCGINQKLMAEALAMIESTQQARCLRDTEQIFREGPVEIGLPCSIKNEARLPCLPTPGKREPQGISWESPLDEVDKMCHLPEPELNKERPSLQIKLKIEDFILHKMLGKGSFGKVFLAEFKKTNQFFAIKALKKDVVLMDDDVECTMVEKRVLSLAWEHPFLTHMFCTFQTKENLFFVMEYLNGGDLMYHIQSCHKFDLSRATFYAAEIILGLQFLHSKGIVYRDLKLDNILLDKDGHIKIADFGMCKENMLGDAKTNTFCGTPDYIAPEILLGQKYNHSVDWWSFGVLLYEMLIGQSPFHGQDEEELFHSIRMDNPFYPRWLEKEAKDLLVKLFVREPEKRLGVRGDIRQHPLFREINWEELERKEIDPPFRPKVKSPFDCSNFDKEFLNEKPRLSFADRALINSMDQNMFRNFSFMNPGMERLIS
MAP2K6 (human), P52564 [S207E/T211E], sequence (P52564 whole entry S207E/T211E, looked up): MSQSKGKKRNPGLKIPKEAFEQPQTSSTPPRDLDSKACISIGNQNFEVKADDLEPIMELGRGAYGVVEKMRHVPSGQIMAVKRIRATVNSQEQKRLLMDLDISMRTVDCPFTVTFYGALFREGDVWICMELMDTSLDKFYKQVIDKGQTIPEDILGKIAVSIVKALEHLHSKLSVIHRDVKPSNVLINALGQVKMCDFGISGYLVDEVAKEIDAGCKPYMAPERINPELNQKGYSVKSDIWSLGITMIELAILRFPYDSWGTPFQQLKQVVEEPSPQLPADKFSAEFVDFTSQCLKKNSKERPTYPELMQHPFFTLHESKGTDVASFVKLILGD
MKNK1 (human), Q9BUB5 [T385D; 165-205 del], sequence (Q9BUB5 whole entry, looked up, stated change not applied): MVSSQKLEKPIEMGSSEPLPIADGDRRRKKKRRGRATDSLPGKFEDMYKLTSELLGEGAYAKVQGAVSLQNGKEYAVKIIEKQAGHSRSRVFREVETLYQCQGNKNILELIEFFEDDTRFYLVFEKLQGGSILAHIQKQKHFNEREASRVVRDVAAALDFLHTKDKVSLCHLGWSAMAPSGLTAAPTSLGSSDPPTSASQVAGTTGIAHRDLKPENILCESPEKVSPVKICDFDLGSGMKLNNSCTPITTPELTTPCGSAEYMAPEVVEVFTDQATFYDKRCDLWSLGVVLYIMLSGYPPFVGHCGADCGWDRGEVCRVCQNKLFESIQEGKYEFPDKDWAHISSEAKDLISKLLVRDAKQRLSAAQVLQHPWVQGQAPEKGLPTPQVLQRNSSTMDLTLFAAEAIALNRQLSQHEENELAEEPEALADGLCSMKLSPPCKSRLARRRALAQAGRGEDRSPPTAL

residual activity [1]	residual activity [2]	residual activity [3]	residual activity [4]	Structure (SMILES)
94.2%	81.5%	93.1%	28%	O=C1NC(=O)c2c1c1c3ccccc3[nH]c1c1[nH]c3cc(Br)ccc3c21
94%	77.2%	99.8%	95.9%	N#CC(C#N)=C(N)/C(C#N)=C/c1ccc(O)cc1
84.9%	32.7%	92.8%	48.5%	COc1cc2ncnc(Nc3ccc(O)c(Br)c3)c2cc1OC
98.4%	99.4%	100%	96.5%	Cc1ccc(S(=O)(=O)/C=C/C#N)cc1
100%	89.5%	99.9%	98%	FC(F)(F)c1ccc(/C=C/c2nc(COc3ccc(CCCCn4ccnn4)cc3)co2)cc1
96.6%	106%	108%	101%	Nc1ccc2ncnc(NCCc3ccc(Oc4ccccc4)cc3)c2c1
102%	101%	92.2%	107%	O=c1c2ccccc2[nH]c(=S)n1CCN1CCC(=C(c2ccc(F)cc2)c2ccc(F)cc2)CC1
86.7%	119%	95.9%	99.7%	CCN1/C(=C/C(C)=O)Sc2ccc(OC)cc21
107%	100%	107%	102%	O=C(NC(NC(=S)Nc1ccc(F)c([N+](=O)[O-])c1)C(Cl)(Cl)Cl)C(c1ccccc1)c1ccccc1 (configuration not stated)
88.7%	80.8%	105%	99.3%	COc1cc2ncnc(Nc3cccc(Cl)c3)c2cc1OC
102%	95.6%	97.5%	98.8%	CCN(CC)CCCCN1c2ccccc2Oc2ccc(Cl)cc21
87.6%	75.2%	103%	92.9%	Nc1ncnc2[nH]nc(Nc3ccc(F)cc3)c12
91.9%	105%	107%	55.1%	Cc1[nH]c(/C=C2\C(=O)Nc3ccc(S(=O)(=O)N(C)c4cccc(Cl)c4)cc32)c(C)c1C(=O)N1CCN(C)CC1
96.4%	103%	105%	87.3%	O=C1Nc2ccc(Cl)cc2/C1=C/c1cc(Cl)c(O)c(Cl)c1
95.3%	98.5%	73.5%	62.8%	Clc1ccc(Nc2nnc(Cc3ccncc3)c3ccccc23)cc1
97.5%	103%	104%	99.8%	N#C/C(=C(/N)Sc1ccc(N)cc1)c1ccccc1C(F)(F)F
89%	101%	66.8%	71.2%	CC(C)(C)c1nc2c3ccc(F)cc3c3c(=O)[nH]ccc3c2[nH]1
96.5%	90%	103%	100%	Cc1ccc(NC(=O)c2ccc(CN3CCN(C)CC3)cc2)cc1Nc1nc(-c2cccnc2)cs1
91.2%	96.5%	92.8%	108%	O=C1NC(=O)/C(=C\c2ccc3nccnc3c2)S1
103%	99.3%	37.2%	95.8%	O=C1NC(=O)C(c2cn(CCCn3ccnc3)c3ccccc23)=C1Nc1ccccc1
94.9%	93.2%	107%	73.8%	COc1cc2nccc(Oc3ccc(NC(=S)NC(=O)c4ccccc4C)cc3)c2cc1OC
62.7%	23.4%	15.1%	3.75%	Nc1nc(Nc2ccc(S(N)(=O)=O)cc2)nn1C(=S)Nc1c(F)cccc1F
108%	96.7%	87.8%	107%	O=C(Nc1cccc(Nc2cc(Nc3cccc(C(F)(F)F)c3)ncn2)c1)C1CC1
90.8%	81.4%	102%	108%	Nc1ncnc2c1cnn2-c1ccccc1
90.5%	90.9%	114%	38%	Nc1nc(Nc2ccc(S(N)(=O)=O)cc2)nn1C(=O)c1c(F)cccc1F
91.1%	80.3%	97%	115%	Cc1cc2ncc(-c3ccccc3)nc2cc1C

residual activity [1]	residual activity [2]	residual activity [3]	residual activity [4]	Structure (SMILES)
96%	94.9%	97.3%	101%	COc1cc2ncnc(N3CCN(C(=O)Nc4ccc(Oc5ccccc5)cc4)CC3)c2cc1OC
88.9%	98.7%	91.4%	92.6%	CC(C)n1cnc2c(Nc3cccc(Cl)c3)nc(NCCO)nc21
80.5%	97.1%	111%	91.3%	CSc1nc(-c2ccc(F)cc2)c(-c2ccnc(NC(C)c3ccccc3)c2)[nH]1 (configuration not stated)
93.1%	97.5%	97.9%	25.9%	CCN(CC)C(=O)c1ccc(Nc2nc(OCC3CCCCC3)c3nc[nH]c3n2)cc1
93.2%	93.5%	82.3%	44.9%	Cc1cc(Nc2nc(-c3ccccc3)nc3ccccc23)n[nH]1
100%	89.5%	89.3%	92.8%	CC#CC(=O)Nc1cc2c(Nc3ccc(F)c(Cl)c3)ncnc2cn1
98.3%	91%	107%	95.9%	O=C(Nc1cccc(Nc2nccc(Nc3cccc(C(F)(F)F)c3)n2)c1)C1CC1
79.4%	93.9%	119%	91.5%	O=c1c(-c2ccc(F)cc2)c(-c2ccncc2)[nH]n1-c1ccc(Cl)cc1
90.4%	117%	93%	95.7%	Cc1ccc(NC2=CC(=O)c3sc(C)nc3C2=O)cc1
138%	75.9%	115%	92.2%	c1ccc(-c2n[nH]cc2-c2ccnc3ccccc23)nc1
92.5%	99.1%	119%	80.7%	CC(C)[C@H](CO)Nc1nc(Nc2cc(N)cc(Cl)c2)c2ncn(C(C)C)c2n1
93.5%	103%	92.5%	112%	O=C(c1ccccc1)c1ccc(N2CCOCC2)cc1O
92.6%	46%	89.2%	88.1%	CCOc1cc2ncnc(Nc3cccc(Br)c3)c2cc1OCC
98.3%	76.9%	98.2%	77.8%	O=C1Cc2c([nH]c3ccc([N+](=O)[O-])cc23)-c2ccccc2N1
106%	95.2%	102%	38.5%	CCCNC(=O)Nc1ccc(Oc2ncnc3cc(OC)c(OC)cc23)cc1Cl
102%	89.7%	103%	94.6%	COc1cc2c(N3CCN(C(=O)Nc4ccc(OC(C)C)cc4)CC3)ncnc2cc1OCCCN1CCCCC1
92.9%	96.2%	83.8%	108%	c1ccc(-c2n[nH]c3c2oc2ccccc23)cc1
110%	115%	121%	123%	CCc1nc(-c2ccc(OC)cc2)[nH]c1-c1ccncc1
87%	89.8%	108%	82.6%	COc1cc2c(cc1OC)-c1[nH]nc(Nc3cccc(F)c3)c1C2
97.3%	101%	111%	98.2%	CCCC(=O)Oc1ccc2[nH]c(C(=O)c3cc4ccccc4[nH]3)cc2c1
98.2%	102%	105%	50.8%	O=C1Nc2cc(Br)ccc2/C1=C1/Nc2ccccc2/C1=N\O
96.2%	107%	117%	104%	O=c1cc(N2CCNCC2)oc2c(-c3ccccc3)cccc12
117%	118%	110%	44.8%	O=C(Nc1ccc(Cl)cc1)c1ccccc1NCc1ccncc1
100%	97.4%	89.7%	117%	Nc1nnc2[nH]c3ccccc3nc1-2
86.2%	75.4%	105%	12.1%	CCN(CC)CCNC(=O)c1c(C)[nH]c(/C=C2\C(=O)Nc3ccc(Cl)cc32)c1C

Structure (SMILES)	residual activity [1]	residual activity [2]	residual activity [3]	residual activity [4]
O=C1NC(=O)c2c1c1c3ccccc3n3c1c1c2c2ccccc2n1C1CCC3O1	19.3%	48.6%	43.2%	4.97%
N/C(=N\N=C/c1ccc(-c2cccc([N+](=O)[O-])c2)o1)N[N+](=O)[O-]	111%	97.4%	94.6%	86.3%
